Data set [1] in a line: Plasma magnesium by atomic absorption flame emission spectroscopy. The data set is classed as in vivo, Sprague-Dawley rats. The following applies: for change in circulating Mg level vs time-matched control: erlotinib starting 10 mg/kg/day oral. On the procedure: Individually-housed rats were weighed and food consumption recorded daily to obtain actual drug dosage: time-range average erlotinib dose over 9 weeks was 7.07 mg/kg/day, and time-range average Emend dose over 9 weeks was 1.41 mg/kg/day.
Magnesium levels in 1:50 or 1:100 diluted, acidified (nitric acid) plasma samples were determined by atomic absorption flame emission spectroscopy (wavelength=285.2 nm) using an AA-6200 Shimadzu spectrophotometer (Columbia, Md.) as described (13). Values obtained from standard curves were mg/dl, and reported as % of control.
Plasma was assessed for magnesium by flame emission atomic absorption spectroscopy (FIG. 2A). Data are the means±SEM of 5-7 animals per group. * p<0.05, **p<0.01 and # p<0.001 compared with the time-matched control group; +p<0.055 versus erlotinib alone. Plasma SP (FIG. 2B) was assessed by a colorimetric ELISA kit.

The procedure of data set [2]: At periodic intervals, blood was collected (˜0.5 ml) aseptically from the tail of anaesthetized rats (2% isoflurane, EZ Anesthesia Chamber with nose cone)(13, 14) in sterile microtainer plasma separator tubes containing heparin and the protease inhibitor, aprotinin (Sigma Chemicals, St. Louis Mo.) to yield final blood concentrations of 10.74 units/ml and 0.016 units/ml, respectively. For subsequent samplings, the scab was carefully removed, and the process was repeated. Plasma was obtained after centrifugation (12,000 rpm, 2 min, RT, IDEXX StatSpin VT, Iris International, Inc., Westwood, Mass.). Tail bleed samples were used for assessment of plasma Mg, and substance P levels. Sacrifice blood samples (˜8 ml collected in heparin plus aprotinin containing BD vacutainer SST tubes) were taken from anaesthetized, heparinized (0.3-0.4 ml 358 units/ml heparin in 0.9% NaCl, i.p.) rats from either the vena cava or by cardiac puncture, and were centrifuged (3,500 rpm, 10 min, RT). […]
Hypomagnesemia alone in rodents can promote neutrophil free radical generating activity (Mak et al., Exp. & Clin. Cardiol. 2011, 16(4):121-124; Mak et al., Magnesium Res 2003, 16(2):91-97). […] Circulating neutrophil basal superoxide generating activity was determined as SOD-inhibitable reduction of cytochrome c (FIG. 3A). Plasma 8-isoprostane was assessed by a colorimetric ELISA kit (FIG. 3B). […]

In data set [3] the test system is nitro-tyrosine in cardiac tissue. Put plainly: Cardiac nitro-tyrosine immunohistochemical assessment. The class given is in vivo, Sprague-Dawley rats. How it is done:
Cardiac tissue was rapidly excised, rinsed in saline, embedded in OCT compound, quickly frozen and kept at […] until used. Cryosections, 5 um thick, were stained by an indirect, immunohistochemical staining method (13) using rabbit anti-rat Nitrotyrosine antibody (5 ug/ml; Millipore, Billerica, Mass.) and the Vecta-Stain Elite ABC kit immunoperoxidase system (Vector Laboratories, Burlingame, Calif.). Samples were examined under an Olympus BX60 microscope, and multiple images were taken with a digital camera (Evolution Color MP; Media Cybernetics, Silver Spring, Md.). Briefly, fresh frozen sections were fixed in 10% formaldehyde, washed in PBS, incubated with 0.3% hydrogen peroxide in methanol for 30 min to block endogenous peroxidase, washed in PBS and incubated overnight at 4 C with rabbit anti nitrotyrosine antibody, which was applied on every slide except negative control. ABC kit reagents for horseradish peroxidase and 3-3′diaminebenzidine (DAB) were used to visualize the antigen-antibody reaction product as brown color. The sections were counterstained with hematoxylin, rinsed, dehydrated and cleared in series of ethanol and xylene and coverslipped.

The conditions of data set [4]: for improvement of AoPmax: NS. On the procedure:
Anesthetized rats were subjected to echocardiography periodically during the treatment regimens using a GE VingMed System Five Echocardiogram System (12, 13, 17, and 18). Heart rate and rectal temperature (35.9-37.5° C.) were monitored constantly during the imaging. Animals were placed on a warming platform with paws taped down to limit any motion during imaging, and a sterile eye lubricant was applied to prevent eye drying during the procedure. Hair over the thorax was removed first with an electric clipper, and then with a depilatory cream (<2 min exposure). Animals were imaged (10 MHz probe) for about 20 minutes at an image depth of 3 cm. This imaging system allows for both cardiac structure and function evaluation in rats. Systolic function, measured as % fractional shortening (% FS) using M-mode imaging, and left ventricular ejection fraction (LVEF), calculated from M-mode measurements, were assessed. Key anatomical parameters (IVSd & s=inter-ventricular septum diameter in diastole and systole; and LVPWd & s=LV posterior wall thickness in diastole or systole) were measured to assess the presence of dilated or hypertrophic cardiomyopathy. Measurements of the aortic and pulmonary artery diameters were used to calculate stroke volumes. Aortic pressure max (AoPmax) was assessed; and spectral Doppler velocities were measured for the pulmonic and aortic outflows to calculate cardiac output (CO), and for the mitral valve inflows to assess ventricular diastolic function (mitral valve E and A wave velocities and the E/A ratio were obtained). After echocardiography, animals were placed in room air until awake, and observed until fully recovered.
Rats treated with erlotinib (starting 10 mg/kg/day, oral) and/or Emend (aprepitant, starting 2 mg/kg/day, oral) received echocardiography at the indicated intervals (FIGS. 5A-5C).
Table 3 legend: Interventricular septum dimension in diastole (IVSd) and systole (IVSs); and LV posterior wall thickness in diastole (LVPWd) and systole (LVPWs). Rats treated with erlotinib (starting 10 mg/kg/day, oral) and/or Emend (aprepitant, starting 2 mg/kg/day, oral) received echocardiography at the indicated intervals. Values (% change) for erlotinib±Emend rats were compared to time-matched controls, and are means±SEM of 5-7 rats per group.

Setting [5] is: 7 weeks, Emend co-treatment of erlotinib-exposed rats.
The mark [6] stands for this setting: 7 weeks, Emend co-treatment, p<0.05 vs erlotinib alone.
Setting [7] is: 9 weeks, Emend co-treatment, p<0.02.
The mark [8] stands for this setting: male, Sprague-Dawley, rat, in vivo.
Setting [9] is: male, Sprague-Dawley, rat, in vivo, 7 weeks.
Setting [10] is: male, Sprague-Dawley, rat, in vivo, 9 weeks.

SMILES strings stand for the structures. Like-named read-outs stand apart in the source and are kept apart here.

`C[C@@H](O[C@H]1OCCN(Cc2n[nH]c(=O)[nH]2)[C@H]1c1ccc(F)cc1)c1cc(C(F)(F)F)cc(C(F)(F)F)c1` [Emend, aprepitant]: the “attenuation of severity of hypomagnesemia due to erlotinib” value in data set [1] (9 week, Emend (starting 2 mg/kg/day) co-treatment with erlotinib) is ~42%. The “effect on elevation of total plasma isoprostane caused by erlotinib” value in data set [2] (9 weeks, Emend co-treatment with erlotinib) was “completely blocked”. For the same compound, the “nitro-tyrosine formation in the ventricles” value in data set [3] (9 wk, Emend co-treatment with erlotinib) is “visibly attenuated”. The nitro-tyrosine formation result in data set [3] (rat, in vivo) is listed as “did not have any effect”. Also, in data set [4] (7 weeks, Emend co-treatment), the “improvement of LV % FS compared to erlotinib alone” value is reported as 65.1%, the “improvement of LVPWs” value came to 53.4%, the “protection against erlotinib-induced decline in cardiac output” value was 64.9% and the “improvement of AoPmax” value is reported as 86%. In addition, in data set [4] (setting [5]), the “improvement of IVSd” value was 48.2% and the “improvement of LVEF compared to erlotinib alone” value stood at 71.3%. In addition, in data set [4] (setting [6]), the “improvement of IVSs” value was determined as 76% and the “improvement of LVPWd” value was determined as 59.1%. For the same compound, in data set [4] (9 weeks, Emend co-treatment), the “improvement of IVSd” value came to 42.8%, the “improvement of IVSs” value is 62%, the “improvement of LVPWd” value amounted to 49.8% and the “improvement of LVPWs” value is recorded as 58.2%. For the same compound, the “improvement of AoPmax” value in data set [4] (9 weeks, Emend co-treatment) is on record as 64%. In data set [4] (setting [7]), the “improvement of LV % FS compared to erlotinib alone” value came to 86.4% and the “improvement of LVEF compared to erlotinib alone” value was 87.2%. In addition, the “protection against erlotinib-induced decline in cardiac output” value in data set [4] (9 weeks, Emend co-treatment, p<0.02 vs ERL alone) is on record as 75.4%. Moreover, the “improvement of mitral valve E/A ratio compared to erlotinib alone” value in data set [4] (9 weeks, Emend co-treatment, p<0.05) came to 84.6%. In addition, the “impact on LV systolic, diastolic, hemodynamic and anatomical parameters compared to time-paired controls” value in data set [4] (rat, in vivo) is reported as “did not have any significant impact”.

Take `C#Cc1cccc(Nc2ncnc3cc(OCCOC)c(OCCOC)cc23)c1` [Erlotinib, erlotinib]: in data set [1] (1.5 week), the “change in circulating Mg level vs time-matched control” value (“change in circulating Mg level” for short) is recorded as −2%. Besides, the “change in circulating Mg level” value in data set [1] (9 weeks, p<0.001) is reported as −26%. In addition, the “change in circulating Mg level” value in data set [1] (wk 3) is −9%. Further, the “change in circulating Mg level” value in data set [1] (wk 5) is recorded as −13%. Also, the “change in circulating Mg level” value in data set [1] (wk 7) was −16%. Besides, the “increase of total plasma 8-isoprostane content” value in data set [2] (rat, in vivo) came to 210%. The “cardiac nitro-tyrosine (NT) presence, immunohistochemical staining” value in data set [3] (9 wk of Erlotinib treatment) is “substantial perivascular and diffused NT presence”. In addition, in data set [4] (setting [8]), the “decline in IVSd” value is on record as 12.8-16.8%, the “decline in LVPWs” value is listed as 9.3-21.9%, the “fall in LVPWd” value was 15.6-20.9% and the “lower IVSs” value was 11.4-17.5%. Moreover, in data set [4] (setting [9]), the “LV % fractional shortening (LV % FS) lower than time-matched control” value came to 17.2%, the “LV ejection fraction (LVEF) lower than time-matched control” value is 10.4%, the “aortic pressure maximum lower than control” value worked out at 17.1% and the “cardiac output reduced vs control” value worked out at 18.8%. Also, in data set [4] (setting [10]), the “LV % fractional shortening (LV % FS) lower than time-matched control” value turned out to be 17.7%, the “LV ejection fraction (LVEF) lower than time-matched control” value came out at 11%, the “aortic pressure maximum lower than control” value came to 27.5% and the “cardiac output reduced vs control” value is given as 20.3%. For the same compound, in data set [4] (setting [10]), the “mitral valve E/A ratio reduction” value was found to be 17.5%. Besides, in data set [4] (rat, in vivo), the “changes in cardiac contractile function” value is recorded as “No significant changes” and the “mitral valve E/A ratio” value is on record as “not significantly affected”.

The record behind these values is patent publication US9687493B2, “Use of NK-1 receptor antagonists for treating hypomagnesemia, neurogenic inflammation, and cardiac dysfunction associated with EGFR-blocking drugs” (THE GEORGE WASHINGTON UNIVERSITY, priority 2014, dated 2017).
